# How the values were obtained:
# Test in all cases: Sphere-forming ability of cultured cancer cell lines (Test Example 10)
# Type in all cases: cell-based
# [1] = test system: A549; settings: Homo sapiens, 96 h; A549 lung cancer cell line, 4 days
# Description: (§1) The colon cancer cell lines SW480, DLD1, HCT15, HT29, SW948, LS174T, LS411N, SW620, LoVo, HCT116, Colo205, and Hs698T, the pancreatic cancer cell lines MiaPaca2, HPAFII, Capan2, and Panc1, the head and neck cancer cell line FaDu, the breast cancer cell lines HCC1954 and T47D, the bladder cancer cell line SW780, the liver cancer cell line HepG2, the neuroblastoma cell lines U87MG and U251, the lung cancer cell lines H460, H1437, and A549, the prostate cancer cell lines DU145 and PC3, the soft tissue tumor cell line HT1080, the testicular cancer cell line NTERA2, and the ovarian cancer cell line SKOV3 was suspended in the sphere formation medium (DMEM-F12 medium of Test Example 3 was used), and seeded in a 384-well plate with Ultra-Low Attachment surface (Corning) in an amount of 5×10^3-10×10^3 cells/well. The compound of Example 24 was then added into each well to adjust the final concentration to 10-10000 nmol/L. The plate was cultured at 37° C. and 5% carbon dioxide in an incubator for 4 days. After the culture, CellTiterGlo (Promega) was added into all of the wells, and the plate was allowed to stand at room temperature for 10 minutes to measure the intensity of luminescence of each well. The concentrations of each test compound for 50% inhibition of cell proliferation to the cell lines (Sphere IC50 value; μmol/L) was calculated from the measured intensity of luminescence. When each gene mutation in Table is reported, the mutation is represented by “+” (gene mutation information is cited from the ATCC website (https://www.atcc.org/en/Products/Cells_and_Microorganisms/Cell_Lines/Cell_lines_by_genetic_mutation.aspx), Cancer Cell Line Encyclopedia (https://portals.broadinstitute.org/ccle_legacy/home), Proc. Natl. Acad. Sci. USA 94 (1997) 10330-10334).
# [2] = test system: COLO 205; settings: Homo sapiens, 96 h; COLO 205 colon cancer cell line, 4 days
# Description: as §1
# [3] = test system: DLD-1; settings: Homo sapiens, 96 h; DLD-1 colon cancer cell line, 4 days
# Description: as §1
# [4] = test system: DU 145; settings: Homo sapiens, 96 h; DU 145 prostate cancer cell line, 4 days
# Description: as §1
# [5] = test system: HCC1954; settings: Homo sapiens, 96 h; HCC1954 breast cancer cell line, 4 days
# Description: as §1
# [6] = test system: HCT 116; settings: Homo sapiens, 96 h; HCT 116 colon cancer cell line, 4 days
# Description: as §1
# [7] = test system: HPAF-II; settings: Homo sapiens, 96 h; HPAF-II pancreatic cancer cell line, 4 days
# Description: as §1
# [8] = test system: HT-1080; settings: Homo sapiens, 96 h; HT-1080 soft tissue tumor cell line, 4 days
# Description: as §1
# [9] = test system: HT-29; settings: Homo sapiens, 96 h; HT-29 colon cancer cell line, 4 days
# Description: as §1
# [10] = test system: Hep G2; settings: Homo sapiens, HepG2, 96 h; Hep G2 liver cancer cell line, 4 days
# Description: as §1
# [11] = test system: Hs 698.T; settings: 96 h; Hs 698.T colon cancer cell line, 4 days
# Description: as §1
# [12] = test system: LS 174T; settings: Homo sapiens, LS174T, 96 h; LS 174T colon cancer cell line, 4 days
# Description: as §1
# [13] = test system: LS411N; settings: Homo sapiens, LS-411N, 96 h; LS411N colon cancer cell line, 4 days
# Description: as §1
# [14] = test system: LoVo; settings: Homo sapiens, 96 h; LoVo colon cancer cell line, 4 days
# Description: as §1
# [15] = test system: MIA PaCa-2; settings: Homo sapiens, 96 h; MIA PaCa-2 pancreatic cancer cell line, 4 days
# Description: as §1
# [16] = test system: NCI-H1437; settings: Homo sapiens, 96 h; NCI-H1437 lung cancer cell line, 4 days
# Description: as §1
# [17] = test system: NCI-H460; settings: Homo sapiens, 96 h; NCI-H460 lung cancer cell line, 4 days
# Description: as §1
# [18] = test system: PC-3; settings: Homo sapiens, 96 h; PC-3 prostate cancer cell line, 4 days
# Description: as §1
# [19] = test system: Panc-1; settings: Homo sapiens, 96 h; Panc-1 pancreatic cancer cell line, 4 days
# Description: as §1
# [20] = test system: SK-OV-3; settings: Homo sapiens, 96 h; SK-OV-3 ovarian cancer cell line, 4 days
# Description: as §1
# [21] = test system: SW 780; settings: Homo sapiens, SW780, 96 h; SW 780 bladder cancer cell line, 4 days
# Description: as §1
# [22] = test system: SW480; settings: Homo sapiens, 96 h; SW480 colon cancer cell line, 4 days
# Description: as §1
# [23] = test system: SW620; settings: Homo sapiens, SW-620, 96 h; SW620 colon cancer cell line, 4 days
# Description: as §1
# [24] = test system: SW948; settings: Homo sapiens, 96 h; SW948 colon cancer cell line, 4 days
# Description: as §1
# [25] = test system: T-47D; settings: Homo sapiens, T47D, 96 h; T-47D breast cancer cell line, 4 days
# Description: as §1
# [26] = test system: U-251; settings: Homo sapiens, 96 h; U-251 neuroblastoma cell line, 4 days
# Description: as §1
# [27] = test system: U-87 MG; settings: Homo sapiens, 96 h; U-87 MG glioblastoma cell line, 4 days
# Description: as §1
compound,measurement,setting,value
"O=C(Nc1cn(Cc2cc(F)c(F)c(F)c2)cn1)c1cnc(CO)c(C(F)F)c1 [Example 24, 5-(difluoromethyl)-6-(hydroxymethyl)-N-[1-(3,4,5-trifluorobenzyl)-1H-imidazol-4-yl]nicotinamide]",IC50,[1],> 10000 nM
same,IC50,[2],142 nM
same,IC50,[3],7 nM
same,IC50,[4],> 10000 nM
same,IC50,[5],23 nM
same,IC50,[6],91 nM
same,IC50,[7],764 nM
same,IC50,[8],> 10000 nM
same,IC50,[9],9 nM
same,IC50,[10],72 nM
same,IC50,[11],> 10000 nM
same,IC50,[12],15 nM
same,IC50,[13],19 nM
same,IC50,[14],28 nM
same,IC50,[15],8 nM
same,IC50,[16],3880 nM
same,IC50,[17],883 nM
same,IC50,[18],> 10000 nM
same,IC50,[19],> 10000 nM
same,IC50,[20],> 10000 nM
same,IC50,[21],56 nM
same,IC50,[22],4 nM
same,IC50,[23],27 nM
same,IC50,[24],9 nM
same,IC50,[25],46 nM
same,IC50,[26],> 10000 nM
same,IC50,[27],89 nM

# From patent publication US20200268728A1, “DRUG TARGETING CANCER STEM CELL” (Sumitomo Dainippon Pharma Co., Ltd., priority 2016, published 2020)
